From patent US20210308188A1, “CELL CLUSTER INCLUDING OLFACTORY NEURON OR PRECURSOR CELL THEREOF, AND METHOD FOR PRODUCING SAME” (SUMITOMO CHEMICAL COMPANY, LIMITED, priority 2018, published 2021)

Assays:
[1] = test system: human iPS cell line HC-6 #10; assay: Maturation culture of cell clusters in viscous medium (Experiment 16); assay type: cell-based; settings: IGF-1 20 ng/ml, 10% fetal bovine serum and EC23 100 nM added together to the culture medium; day 45
Experimental: Cell clusters were maturation-cultured in a viscous medium in accordance with the method shown in the upper section of FIG. 30. The viscous medium was prepared with reference to Japanese Patent No. 6176770. Specifically, 3 g of methylcellulose (manufactured by Sigma. Aldrich, Inc., viscosity: 4000 cP, M0512) was weighed, and sterilized by autoclaving in a 500 ml wide-open medium bottle containing an agitator, and then 100 ml of medium was added thereto. As the medium, a 1:1 in volume mixture of F-12+Glutamax medium and IMDM+Glutamax medium supplemented with 5% Knockout Serum Replacement, 10% fetal bovine serum (manufactured by Biosera), 450 μM 1-monothioglycerol, lx Chemically defined lipid concentrate, 50 unit/ml penicillin-50 μg/ml streptomycin, 20 ng/ml FGF-TS, 20 ng/ml EGF, 20 ng/ml IGF-1 (manufactured by R&D Systems), 10 μg/ml Heparin Sodium, 1 μM SB431542, 1 μM K02288, 300 nM CHIR99021, and 100 nM EC23 (retinoic acid signaling pathway-activating substance) was used. The medium bottle containing methylcellulose supplemented with the medium was stirred in a cryogenic chamber overnight using a stirrer corresponding to a high viscosity liquid (manufactured by Asahi Rika Factory. Ltd, AMG-H). […]

[2] = test system: human iPS cell line HC-6 #10; assay: Effect of TAK1 inhibitor in cell cluster production (Experiment 15); assay type: cell-based; settings: 5z-7-oxozeaenol 2 μM from day 3 (step (3)); day 21
Experimental: Human iPS cells (HC-6 #10 cell line, obtained from the Institute of Physical and Chemical Research) were subjected to maintenance culturing and step (a) in the same manner as in Experiment 1. The suspension culturing was started on a 96-well culture plate in the same manner as in Experiment 1, except that the number of cells per well was 9×10^3 cells.
At the start of suspension culturing (day 0 after the start of suspension culturing, start of step (1)), Y27632 (final concentration 20 μM), IWP-2 (final concentration 2 μM), SB-431542 (final concentration 1 μM) and CHIR99021 (final concentration 300 nM) were added to the serum-free medium.
On day 2 after the start of suspension culturing, a serum-free medium being free of Y27632 and containing SB-431542, BMP4, IWP-2 and CHIR99021 was added at 100 μl per well (start of step (2)). BMP4 was added to the medium at 3 nM to be a final concentration in the well of 1.5 nM.
On day 3 after the start of suspension culturing, the medium was half exchanged with a serum-free medium being free of Y27632 and BMP4 and containing IWP-2, SB-431542, FGF2, Heparin Sodium, and CHIR99021. In addition, a TAK1 inhibitor 5z-7-oxozeaenol (manufactured by Cayman Chemical) was added to the medium at 4 μM to be a final concentration in the well of 2 μM (start of step (3a)). […]

Molecule | maintenance of olfactory epithelial-like tissues [1] | formation of olfactory epithelium-like tissues on the surface of the cell cluster versus cell cluster produced without the TAK1 inhibitor [2]
CC1(C)CCC(C)(C)c2cc(C#Cc3ccc(C(=O)O)cc3)ccc21 | could further efficiently maintain olfactory epithelial-like tissues | –
COc1cc(O)c2c(c1)/C=C/C[C@H](O)[C@H](O)C(=O)/C=C\C[C@H](C)OC2=O [TAK1 inhibitor, (3S,5Z,8S,9S,11E)-3,4,9,10-tetrahydro-8,9,16-tri hydroxy-14-methoxy-3-methyl-1H-2-benzoxacyclotetradecin-1,7(8H)-dione] | – | more efficient formation of olfactory epithelium-like tissues
IGF: 20 ng/ml IGF-1 (manufactured by R&D Systems) in the viscous medium | could further efficiently maintain olfactory epithelial-like tissues | –
